In DBAASP one finds MIC data, which are given here for two compounds.

Holding throughout (experiment): ≥ marks a high value that may be exact or a test limit, other limits are often not marked, values filed in µg/mL are converted to µM
Experiment [1] deals with Bacillus subtilis IFO 3336.
Experiment [2] relates to Escherichia coli IFO 3301.
Experiment [3] has as its system Klebsiella pneumoniae NCTC 13368.
Experiment [4] concerns Staphylococcus aureus USA 300.
The test system of experiment [5] is Pseudomonas aeruginosa PAO1.
A further experiment has as its system Escherichia coli LEC001.
Experiment [6] relates to Pseudomonas aeruginosa NCTC 13437.
In experiment [7] the test system is Escherichia coli NCTC 12923.
In experiment [8] the test system is Acinetobacter baumannii AYE.
For experiment [9], the system named is Acinetobacter baumannii ATCC 17978.
The subject of experiment [10] is Staphylococcus aureus ATCC 9144.

Some results are limits rather than exact numbers.

Regarding `NCC(=O)N[C@@H](Cc1cnc[nH]1)C(=O)NCC(=O)N[C@@H](Cc1cnc[nH]1)C(=O)NCC(=O)N[C@@H](Cc1cnc[nH]1)C(=O)NCC(=O)N[C@@H](Cc1cnc[nH]1)C(=O)NCC(=O)N[C@@H](Cc1cnc[nH]1)C(=O)O` [GHGHGHGHGH], the MIC in experiment [1] and in [2] was not below 506 µM throughout.

Consider `CC[C@H](C)[C@H](NC(=O)CNC(=O)[C@H](CO)NC(=O)[C@@H](N)Cc1c[nH]c2ccccc12)C(=O)N[C@@H](CCCN=C(N)N)C(=O)NCC(=O)N[C@@H](Cc1ccc(O)cc1)C(=O)N[C@@H](CCCCN)C(=O)NCC(=O)NCC(=O)N[C@@H](Cc1ccc(O)cc1)C(=O)N[C@@H](CCCCN)C(=O)NCC(=O)N[C@@H](CC(C)C)C(=O)N[C@@H](Cc1ccccc1)C(=O)N[C@@H](CCCCN)C(=O)N[C@@H](CCC(N)=O)C(=O)N[C@H](C(=O)N[C@@H](CC(N)=O)C(=O)N[C@@H](Cc1ccc(O)cc1)C(N)=O)[C@@H](C)O` [WSGIRGYKGGYKGLFKQTNY], for which the MIC (in general, the smallest concentration in the dilution series that meets the test's criterion for growth inhibition) was not below 55.1 µM in experiment [3]; not below 55.1 µM in [4]; more than 55.1 µM in experiment [5]; not below 55.1 µM in the experiment with Escherichia coli LEC001; not below 55.1 µM in experiment [6]; not below 55.1 µM in experiment [7]. In addition, the MIC in experiment [8], in experiment [9] and in experiment [10] was not below 55.1 µM throughout.
